Values of other authors as cited in Sander's compilation of Henry's law constants (doi:10.1021/ci0256485).

Experiment: Henry solubility constant Hcp at 298.15 K (mol/(m3 Pa))
Settings: reference: Delgado and Alderete (2003); cited value

Row | SMILES | Henry solubility constant Hcp
1 | CCNc1nc(NC(C)C)nc(SC)n1 [ametryn] | 4100
2 | Cc1nnc(-c2ccccc2)c(=O)n1N [metamitron] | 2.2e+06
